From patent US8563717B2, “Adenine derivatives” (GlaxoSmithKline LLC, priority 2008, dated 2013) come the findings set out here.

Structures are written as SMILES. Structures can show the parent of a compound that is named as a salt.

The test system of the test is Interferon-α. Nature of the test: Induction of Interferon-α using cryopreserved human PBMCs. In kind it is cell-based. To be noted: PBMC, 24 h incubation, normalised to 1 uM resiquimod, read-out: mean pEC50 for induction of IFN-α (converted). As to the method:
Assay for the Induction of Interferon-α Using Cryopreserved Human Peripheral Blood Mononuclear Cells (PBMCs)
Compounds were dissolved in DMSO. Serial 2-fold dilutions with DMSO were prepared and 0.25 μl dispensed into 384-well clear Greiner polypropylene plates.
Blood samples of up to 200 ml were obtained from healthy human donors. Whole blood in 25 ml volumes was overlaid onto 15 ml Ficoll gradients in Leucosep tubes, and centrifuged at 1000 g for 20 min. Cells in the band at the plasma/histopaque interface were carefully removed and washed twice with PBS (centrifuged at 400 g for 5 min to harvest). The final pellet was resuspended in freezing medium (90% Heat-inactivated serum, 10% DMSO) to a cell concentration of 4×10^7 cells/ml. The resuspended cells were then cryopreserved (frozen) using a rate controlled freezer, and stored at −140° C. for up to 4 months.
Immediately prior to assay, vials of cryopreserved (frozen) PBMCs were thawed rapidly in a water bath at 37° C. A 1:10 dilution of the cells in trypan blue was prepared and counted. The PBMCs were then diluted in growth media [RPMI 1640 containing 10% fetal calf serum (invitrogen), Penicillin+[…] (Gibco cat. #25030-024, 1:50), L-Glutamine 2 mM, and 1000 units/ml recombinant human IFN-gamma (Preprotech catalogue #300-02)] to a density of 1×10^6 cells/ml, and 50 ul/well dispensed to 384-well clear Greiner polypropylene plates containing 0.25 μl DMSO or test compound in 0.25 μl DMSO. […] Plates were incubated for 24 h at 37° C. in 5% CO2.
A multi-isoform immunoassay was used to quantify IFN-α in PBMC supernatants. Rabbit polyclonal antibody against human IFN-α (catalogue number 31101, Stratech Scientific) was diluted 1:10000 in assay buffer (RPMI 1640 containing 10% fetal calf serum, Invitrogen) and 20 μl was added to each well of an MSD (Meso-Scale Discovery) single small-spot 384-well GAR (goat anti-rabbit antibody coated) plate. The plate was incubated for 1 hour at room temperature with vigorous shaking. Following three washes with PBS, 20 μl of cell supernatant were added to each well of the plate. The plate was then incubated for 1 hour at room temperature with vigorous shaking. A pair of monoclonal antibodies to IFN-α (catalogue numbers 21100 and 21112, Stratech Scientific) were labelled with sulfo-TAG (MSD), diluted 1:1000 in assay buffer and 20 μl added to each well of the plate. The plate was further incubated for 1 hour at room temperature with vigorous shaking. Following three washes with PBS, 30 μl of x2 T buffer (MSD) was added to each well and the plate was read on an MSD Sector 6000 plate reader.
Data were normalised to internal plate controls of 1 uM resiquimod (n=16) and DMSO (n=16). pEC50 values were derived by 4-parameter curve fit with IRLS in ActivityBase, from 11-point, two-fold serial dilution of test compounds.
Turning to `CCCCOc1nc(N)c2[nH]c(=O)n(CCCCC3CCN(C(C)C)CC3)c2n1` [Example 109, 6-Amino-2-(butyloxy)-9-{4-[1-(1-methylethyl)-4-piperidinyl]butyl}-7,9-dihydro-8H-purin-8-one], the EC50 is less than 1.58 µM.
For `CCCCOc1nc(N)c2[nH]c(=O)n(CC3CCN(CCCC)CC3)c2n1` [Example 72, 6-Amino-2-(butyloxy)-9-[(1-butyl-4-piperidinyl)methyl]-7,9-dihydro-8H-purin-8-one], the EC50 was less than 1.58 µM.
`CCCCOc1nc(N)c2[nH]c(=O)n(CCCCC3CCN(CC4CCCC4)CC3)c2n1` [Example 115, 6-Amino-2-(butyloxy)-9-{4-[1-(cyclopentylmethyl)-4-piperidinyl]butyl}-7,9-dihydro-8H-purin-8-one]: the EC50 is less than 1.58 µM.
As for `CCCCOc1nc(N)c2[nH]c(=O)n(CCCCC3CCCN(CCCC)C3)c2n1` (stereo not shown) [Example 59, 6-Amino-2-(butyloxy)-9-[4-(1-butyl-3-piperidinyl)butyl]-7,9-dihydro-8H-purin-8-one], the EC50 was less than 1.58 µM.
Turning to `CCCCOc1nc(N)c2[nH]c(=O)n(CCCCC3CCCNC3)c2n1` (stereo not shown) [Example 55, 6-amino-2-(butyloxy)-9-[4-(3-piperidinyl)butyl]-7,9-dihydro-8H-purin-8-one], the EC50 is less than 1.58 µM.
For the compound `CCC[C@H](C)Oc1nc(N)c2[nH]c(=O)n(CCC3CCCNC3)c2n1` (stereo partly drawn) [Example 40, 6-Amino-2-{[(1S)-1-methylbutyl]oxy}-9-[2-(3-piperidinyl)ethyl]-7,9-dihydro-8H-purin-8-one], the EC50 was less than 1.58 µM.
On to `CCCCOc1nc(N)c2[nH]c(=O)n(CCC3CCNCC3)c2n1` [Example 6, hydrochloride], for which the EC50 is less than 1.58 µM.
For `CCC[C@H](C)Oc1nc(N)c2[nH]c(=O)n(CCC3CCNCC3)c2n1` [Example 90, 6-Amino-2-{[(1S)-1-methylbutyl]oxy}-9-[2-(4-piperidinyl)ethyl]-7,9-dihydro-8H-purin-8-one], the EC50 was less than 1.58 µM.
The same measure for `CCCCOc1nc(N)c2[nH]c(=O)n(CCCC3CCCN(CC)C3)c2n1` (stereo not shown) [Example 44, 6-Amino-2-(butyloxy)-9-[3-(1-ethyl-3-piperidinyl)propyl]-7,9-dihydro-8H-purin-8-one]: less than 1.58 µM; for `CCCCOc1nc(N)c2[nH]c(=O)n(CCC3CCN(CCC4CCCCC4)CC3)c2n1` [Example 89, 6-Amino-2-(butyloxy)-9-{2-[1-(2-cyclohexylethyl)-4-piperidinyl]ethyl}-7,9-dihydro-8H-purin-8-one]: less than 1.58 µM.
Consider `CCCCOc1nc(N)c2[nH]c(=O)n(CCCCCC3CCN(C4CCCC4)CC3)c2n1` [Example 129, 6-Amino-2-(butyloxy)-9-[5-(1-cyclopentyl-4-piperidinyl)pentyl]-7,9-dihydro-8H-purin-8-one], for which the EC50 was less than 1.58 µM.
Take `CCCCOc1nc(N)c2[nH]c(=O)n(CCCC3CCCCN3C(C)C)c2n1` (stereo not shown) [Example 16, 6-Amino-2-(butyloxy)-9-{3-[1-(1-methylethyl)-2-piperidinyl]propyl}-7,9-dihydro-8H-purin-8-one]: the EC50 was less than 1.58 µM.
Take `CCC[C@H](C)Oc1nc(N)c2[nH]c(=O)n(CCCCC3CCNCC3)c2n1` [Example 118, 6-Amino-2-{[(1S)-1-methylbutyl]oxy}-9-[4-(4-piperidinyl)butyl]-7,9-dihydro-8H-purin-8-one]: the EC50 was less than 1.58 µM.
The same measure for `CCC[C@H](C)Oc1nc(N)c2[nH]c(=O)n(CC3CCN(C(C)C)CC3)c2n1` [Example 79, 6-Amino-2-{[(1S)-1-methylbutyl]oxy}-9-{[1-(1-methylethyl)-4-piperidinyl]methyl}-7,9-dihydro-8H-purin-8-one]: less than 1.58 µM; for `CCCCOc1nc(N)c2[nH]c(=O)n(CCC3CCN(C(CC)CC)CC3)c2n1` [Example 84, 6-Amino-2-(butyloxy)-9-{2-[1-(1-ethylpropyl)-4-piperidinyl]ethyl}-7,9-dihydro-8H-purin-8-one]: less than 1.58 µM; for `CCCCOc1nc(N)c2[nH]c(=O)n(CCCC3CCCCN3CCC)c2n1` (stereo not shown) [Example 15, 6-Amino-2-(butyloxy)-9-[3-(1-propyl-2-piperidinyl)propyl]-7,9-dihydro-8H-purin-8-one]: less than 1.58 µM.
As to `CCCCOc1nc(N)c2[nH]c(=O)n(CCCCC3CCN(C(CC)CC)CC3)c2n1` [Example 112, 6-Amino-2-(butyloxy)-9-{4-[1-(1-ethylpropyl)-4-piperidinyl]butyl}-7,9-dihydro-8H-purin-8-one], the EC50 is less than 1.58 µM.
On to `CCCCOc1nc(N)c2[nH]c(=O)n(CCCC3CCCCN3C3CCCC3)c2n1` (stereo not shown) [Example 20, 6-Amino-2-(butyloxy)-9-[3-(1-cyclopentyl-2-piperidinyl)propyl]-7,9-dihydro-8H-purin-8-one], for which the EC50 was less than 1.58 µM.
On to `CCCCOc1nc(N)c2[nH]c(=O)n(CCCC3CCCCN3CC)c2n1` (stereo not shown) [Example 14, 6-Amino-2-(butyloxy)-9-[3-(1-ethyl-2-piperidinyl)propyl]-7,9-dihydro-8H-purin-8-one], for which the EC50 is less than 1.58 µM.
`CCCCOc1nc(N)c2[nH]c(=O)n(CCC3CCCCN3CC)c2n1` (stereo not shown) [Example 12, 6-Amino-2-(butyloxy)-9-[2-(1-ethyl-2-piperidinyl)ethyl]-7,9-dihydro-8H-purin-8-one]: the EC50 is less than 1.58 µM.
Regarding `CCCCOc1nc(N)c2[nH]c(=O)n(CCCC3CCCN(CC4CCCC4)C3)c2n1` (stereo not shown) [Example 51, 6-Amino-2-(butyloxy)-9-{3-[1-(cyclopentylmethyl)-3-piperidinyl]propyl}-7,9-dihydro-8H-purin-8-one hydrochloride], the EC50 was less than 1.58 µM.
Take `CCCCOc1nc(N)c2[nH]c(=O)n(CC3CCCN(C4CCCC4)C3)c2n1` (stereo not shown) [Example 28, 6-Amino-2-(butyloxy)-9-[(1-cyclopentyl-3-piperidinyl)methyl]-7,9-dihydro-8H-purin-8-one hydrochloride]: the EC50 is less than 1.58 µM.
The same measure for `CCCCOc1nc(N)c2[nH]c(=O)n(CCC3CCN(C4CCCC4)CC3)c2n1` [Example 86, 6-Amino-2-(butyloxy)-9-[2-(1-cyclopentyl-4-piperidinyl)ethyl]-7,9-dihydro-8H-purin-8-one]: less than 1.58 µM; for `CCCCOc1nc(N)c2[nH]c(=O)n(CC3CCN(C4CCCC4)CC3)c2n1` [Example 75, 6-Amino-2-(butyloxy)-9-[(1-cyclopentyl-4-piperidinyl)methyl]-7,9-dihydro-8H-purin-8-one]: less than 1.58 µM; for `CCCCOc1nc(N)c2[nH]c(=O)n(CCC3CCCN(CC(C)C)C3)c2n1` (stereo not shown) [Example 34, 6-Amino-2-(butyloxy)-9-{2-[1-(2-methylpropyl)-3-piperidinyl]ethyl}-7,9-dihydro-8H-purin-8-one]: less than 1.58 µM.
Take `CCCCOc1nc(N)c2[nH]c(=O)n(CCC3CCN(C4CCCCC4)CC3)c2n1` [Example 88, 6-Amino-2-(butyloxy)-9-[2-(1-cyclohexyl-4-piperidinyl)ethyl]-7,9-dihydro-8H-purin-8-one]: the EC50 is less than 1.58 µM.
On to `CCC[C@H](C)Oc1nc(N)c2[nH]c(=O)n(CCCC3CCCN(CC)C3)c2n1` (stereo partly drawn) [Example 54, 6-Amino-9-[3-(1-ethyl-3-piperidinyl)propyl]-2-{[(1S)-1-methylbutyl]oxy}-7,9-dihydro-8H-purin-8-one], for which the EC50 is less than 1.58 µM.
On to `CCCCOc1nc(N)c2[nH]c(=O)n(CCCC3CCCCN3CCCC)c2n1` (stereo not shown) [Example 17, 6-Amino-2-(butyloxy)-9-[3-(1-butyl-2-piperidinyl)propyl]-7,9-dihydro-8H-purin-8-one], for which the EC50 is less than 1.58 µM.
With `CCC[C@H](C)Oc1nc(N)c2[nH]c(=O)n(CCCCC3CCCNC3)c2n1` (stereo partly drawn) [Example 65, 6-Amino-2-{[(1S)-1-methylbutyl]oxy}-9-[4-(3-piperidinyl)butyl]-7,9-dihydro-8H-purin-8-one], the EC50 is less than 1.58 µM.
In the case of `CCCCOc1nc(N)c2[nH]c(=O)n(CC3CCN(CCC)CC3)c2n1` [Example 70, 6-Amino-2-(butyloxy)-9-[(1-propyl-4-piperidinyl)methyl]-7,9-dihydro-8H-purin-8-one], the EC50 is less than 1.58 µM.
Consider `CCCCOc1nc(N)c2[nH]c(=O)n(CCCC3CCN(C4CCCC4)CC3)c2n1` [Example 100, 6-Amino-2-(butyloxy)-9-[3-(1-cyclopentyl-4-piperidinyl)propyl]-7,9-dihydro-8H-purin-8-one], for which the EC50 was less than 1.58 µM.
